# Source: patent US4695570A, “Antiviral compound use” (Burroughs Wellcome Co., priority 1985, dated 1987)
# How the values were obtained:
# [1] = system: xanthine oxidase/dehydrogenase or aldehyde oxidase
# From the text: (§1) It is thus possible to synthesize acyclovir in the body (i.e. in vivo) by administering 6-deoxyacyclovir to mammals including humans wherein the 6-deoxyacyclovir is acted upon by xanthine oxidase/dehydrogenase or aldehyde oxidase in the body and is thereby converted into acyclovir. […] Oxygen or other appropriate electron acceptors such as ferricyanide ion or methylene blue may serve as the oxidizing agent. Microorganisms which contain or produce xanthine oxidase/dehydrogenase may be used to effect the conversion of 6-deoxyacyclovir to acyclovir.
# [2] = Oral absorption and acyclovir blood/plasma levels in rats; format: in vivo
# Method: The following experiments were carried out to determine the urinary excretion and plasma levels of acyclovir after oral dosing of rats with acyclovir, 6-deoxyacyclovir and the 6-amino analogue thereof i.e. 2,6-diamino-9-(2-hydroxyethoxymethyl)purine, hereinafter referred to as aminoacyclovir.
# Long Evans male rats were dosed by intragastric needle with the drug and placed in metabolic cages which separated urine from feces. The collected urine and plasma samples were analyzed for acyclovir content by a radioimmunoassay (Quinn, R. P., et al., Anal. Biochem., 98, 319 (1979)).
# [3] = system: Beagle dogs; experiment: Toxicity study in Beagle dogs, per os; format: in vivo; conditions: 40 mg/kg/day, once daily 5 days
# Method: Two male and 2 female Beagle dogs were given 6-deoxyacyclovir per os (once daily for 5 consecutive days) at a dose level of 40 mg/kg/day. There were no effects in 1 male and 1 female sacrificed at the end of the treatment period or in 1 male and 1 female sacrificed after a 2 week post-dose period.
# [4] = system: xanthine oxidase from bovine milk; experiment: Enzyme studies: rate of oxidation by xanthine oxidase from bovine milk; format: biochemical
# From the text: The discovery that the 6-hydrogen purine of formula (I) above can be readily converted into its corresponding 6-hydroxy analogue is surprising since in previous studies with xanthine oxidase from bovine milk (H. Lettre et al. (1967) Biochem. Pharmacol., 16, 1747-1755; T. A. Krenitsky et al. (1972) Arch. Biophys., 150, 585-599) it was shown that 9-substitution obliterates or greatly diminishes the rate at which a variety of purines are oxidized.
# [5] = system: xanthine oxidase/dehydrogenase or aldehyde oxidase; experiment: Ex vivo (in vitro) enzymatic oxidation to acyclovir; format: biochemical
# From the text: as §1
# [6] = system: bovine milk xanthine oxidase; experiment: Enzymatic conversion of 6-deoxyacyclovir to acyclovir by bovine milk xanthine oxidase (Example 2); format: biochemical; conditions: 24 hours, 43.6 μM substrate, pH 6.8, 25° C, atmospheric oxygen; UV monitoring
# Method: A solution (20 μL) of a purified bovine milk xanthine oxidase containing 1.06 units (nmoles of xanthine oxidized per minute) of activity was added to 500 μL of a solution 43.6 μM with respect to 6-deoxyacyclovir, 0.05M with respect to potassium phosphate and 0.13 mM with respect to ethylenediaminetetraacetic acid at pH 6.8 and 25° C. The reaction mixture was equilibrated with atmospheric oxygen, and the oxygen served as the electron acceptor. […] The indentity of acyclovir as the product of the reaction was confirmed by its NMR spectrum.
# [7] = cited from earlier work
# [8] = system: herpes viruses such as herpes simplex; conditions: cited from earlier work
# [9] = Water solubility at 25° C; format: physicochemical
# [10] = system: adenosine deaminase; conditions: depends on adenosine deaminase; Good and de Miranda 1982; cited from earlier work
structure (smiles),measurement,setting,value
"Nc1ncc2ncn(COCCO)c2n1 [6-deoxyacyclovir, 2-Amino-9-(2-hydroxyethoxymethyl)purine]",conversion in vivo into acyclovir,[1],readily converted in vivo
same,blood levels of acyclovir compared with oral acyclovir itself,[2],higher blood levels of acyclovir are obtainable with 6-deoxyacyclovir than with acyclovir itself
same,absorption from the gastro-intestinal tract and plasma levels of acyclovir,[2]; rats,efficient absorption from the gastro-intestinal tract and high plasma levels of the corresponding acyclovir
same,effects in toxicity study,[3]; after 2 week post-dose period,no effects
same,effects in toxicity study,[3]; end of treatment,no effects
same,rate of oxidation relative to the 9-unsubstituted purine,[4],at a faster rate than the 9-unsubstituted purine
same,ex vivo (in vitro) enzymatic oxidation to acyclovir,[5],demonstrated that acyclovir may be synthesized
same,conversion to acyclovir,[6],nearly complete conversion to acyclovir
"Nc1nc2c(ncn2COCCO)c(=O)[nH]1 [acyclovir, 9-(2-hydroxyethoxymethyl)guanine]",absorption upon oral administration,[7],only moderately well absorbed upon oral administration
same,activity against herpes viruses,[8]; herpes viruses such as herpes simplex,particularly good activity against herpes viruses
same,effectiveness upon topical or parenteral administration,[8]; topical or parenteral,especially effective upon topical or parenteral administration
same,solubility in water,[9],1250 µg/mL
"Nc1nc(N)c2ncn(COCCO)c2n1 [aminoacyclovir, 2,6-diamino-9-(2-hydroxyethoxymethyl)purine]",conversion to acyclovir in vivo,[10],depends on adenosine deaminase for conversion to acyclovir in vivo
